According to patent US20230293430A1, “FORMULATIONS INCLUDING 5-[3-(3-HYDROXYPHENOXY)AZETIDIN-1-YL]-5-METHYL-2,2-DIPHENYLHEXANAMIDE” (Mylan Pharma UK Limited, priority 2020, published 2023):

Tests used:
[1] = Aerosolization performance (fine particle mass / fine particle fraction, Next Generation Impactor); format: physicochemical; conditions: 7% w/w blend strength with 60 μm coarse lactose LH200
Method: The expression “respirable fraction” refers to an index of the percentage of active particles which would reach the lungs in a patient. The respirable fraction is evaluated using a suitable in vitro apparatus such as Andersen Cascade Impactor (ACI), Multi Stage Liquid Impinger (MSLI) or Next Generation Impactor (NGI), according to procedures reported in common Pharmacopoeias, in particular in the European Pharmacopeia (Eur. Ph.) 7.3, 7th Edition, which is incorporated herein by reference in its entirety.
In this example, a dry powder blend formulation of carboxamide hydrochloride and lactose monohydrate was obtained and utilized to provide the MGR002 and MGR003 products. To achieve a FPM of 128 μg of MGR002, it has been determined that a 7% w/w carboxamide hydrochloride dry powder blend was required. The formulation included coarse lactose only (LH200, D50 of 60 μm), with a 5% w/w API overage to account for losses during the blending process. […]
Aerosolization performance information was obtained for the same batches of MGR002 and MGR003 as were used in obtaining emitted data. FIG. 3 illustrates the aerosolization performance as measured by fine particle mass (FPM) obtained from 6 devices from each MGR002 and MGR003 product. […]

[2] = Equivalence of TIR and FPM between products (ratio of geometric means, NGI); format: physicochemical
From the text: Aerosolization performance information was obtained for the same batches of MGR002 and MGR003 as were used in obtaining emitted data. FIG. 3 illustrates the aerosolization performance as measured by fine particle mass (FPM) obtained from 6 devices from each MGR002 and MGR003 product. FIG. 4 and Table 37 below present the results and equivalence criteria, respectively for carboxamide hydrochloride of formula II. The results in Table 37 are listed in terms of total impactor recovery (TIR) and fine particle mass (FPM) for MGR001, MGR002 and MGR003, carboxamide compound, salmeterol and fluticasone propionate.
The mean particle mass (FPM) and mean total impactor recovery (TIR) from a next generation impactor (NGI) for each batch were equivalent, based on the fact that the upper/lower 90% confidence interval of the ratio of the geometric mean, and fell between 0.90 and 1.11. […] The fluticasone propionate and salmeterol xinafoate components of the MGR003 drug product also met the same performance targets as the MGR001 250/50 drug product.

CC(C)(CCC(C(N)=O)(c1ccccc1)c1ccccc1)N1CC(Oc2cccc(O)c2)C1.Cl [Carboxamide Hydrochloride, 5-[3-(3-Hydroxyphenoxy)azetidin-1-yl]-5-methyl-2,2-diphenylhexanamide hydrochloride]
fine particle mass (FPM) achieved [1]: 138 µg | FPM: ratio of geometric means (MGR002 divided by MGR003) ([2]; fine particle mass): 0.95 | TIR: ratio of geometric means (MGR002 divided by MGR003) ([2]; total impactor recovery): 0.97

CCC(=O)O[C@]1(C(=O)SCF)[C@H](C)C[C@H]2[C@@H]3C[C@H](F)C4=CC(=O)C=C[C@]4(C)[C@@]3(F)[C@@H](O)C[C@@]21C [Fluticasone propionate, fluticasone propionate]
FPM: ratio of geometric means (MGR001 divided by MGR003) ([2]; fine particle mass): 0.99 | TIR: ratio of geometric means (MGR001 divided by MGR003) ([2]; total impactor recovery): 0.96

OCc1cc(C(O)CNCCCCCCOCCCCc2ccccc2)ccc1O (stereo not shown) [Salmeterol, salmeterol xinafoate]
FPM: ratio of geometric means (MGR001 divided by MGR003) ([2]; fine particle mass): 1.01 | TIR: ratio of geometric means (MGR001 divided by MGR003) ([2]; total impactor recovery): 0.97
